Experimental data: ChEMBL document CHEMBL5212743, “Selectivity Literature for EUbOPEN Chemogenomics Library wave 3” (2023)
Blank lines part the entries; values can stand above or below the compound they belong to.

Legend:
[1] = biological target: T1, Gamma-aminobutyric acid receptor subunit alpha-1 (Homo sapiens, UniProt P14867); assay: Selectivity interaction (GPCR panel (PDSP screen)) EUB0000302b GABRA1
T1 sequence (P14867 whole entry): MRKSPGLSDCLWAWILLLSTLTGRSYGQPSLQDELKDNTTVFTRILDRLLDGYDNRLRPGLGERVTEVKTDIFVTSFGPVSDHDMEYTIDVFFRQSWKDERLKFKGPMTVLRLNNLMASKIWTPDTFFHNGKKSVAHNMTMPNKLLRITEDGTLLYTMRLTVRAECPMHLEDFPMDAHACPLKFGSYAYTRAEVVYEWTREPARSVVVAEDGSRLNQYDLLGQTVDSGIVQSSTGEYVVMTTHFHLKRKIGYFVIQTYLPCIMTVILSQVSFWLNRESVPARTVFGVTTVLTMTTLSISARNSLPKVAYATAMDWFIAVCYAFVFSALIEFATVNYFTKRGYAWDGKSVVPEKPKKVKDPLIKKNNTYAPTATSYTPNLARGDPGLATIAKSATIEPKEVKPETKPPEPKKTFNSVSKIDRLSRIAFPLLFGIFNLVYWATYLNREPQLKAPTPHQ

[2] = biological target: Muscarinic acetylcholine receptor M1 (Homo sapiens, UniProt P11229); assay: Selectivity interaction (GPCR panel (PDSP screen)) EUB0000743a CHRM1
[3] = biological target: SRSF protein kinase 2 (Homo sapiens) (UniProt P78362); assay: Selectivity interaction (KinomeScan (DiscoverX)) EUB0000743a SRPK2; settings: Cellular assay (active RAS (KRAS, HRAS,NRAS) in Calu-1 cells ([…])): IC50 = 4120 nM, https://www.sgc-ffm.uni-frankfurt.d, at 1 µM
[4] = biological target: Megakaryocyte-associated tyrosine-protein kinase (Homo sapiens) (UniProt P42679); assay: Selectivity interaction (KinomeScan (DiscoverX)) EUB0000743a MATK; settings: Cellular assay (active RAS (KRAS, HRAS,NRAS) in Calu-1 cells ([…])): IC50 = 4120 nM, https://www.sgc-ffm.uni-frankfurt.d, at 1 µM
Cannabinoid receptor 1 [5] = biological target: T2, Cannabinoid receptor 1 (Homo sapiens, UniProt P21554); assay: Selectivity interaction (CNR1 functional assay (GTPyS binding)) EUB0000291b CNR1
Cannabinoid receptor 1 [6] = biological target: T2, Cannabinoid receptor 1; assay: Selectivity interaction (Eurofins-Panlabs radioligand binding assay) EUB0000291b CNR1; settings: at 10 µM
[7] = biological target: Proteinase-activated receptor 4 (Homo sapiens, UniProt Q96RI0); assay: Selectivity interaction (Functional cellular assay (using HEK cells expressing F2RL3)) EUB0000291b F2RL3
[8] = biological target: Serine/threonine-protein kinase DCLK2 (Homo sapiens) (UniProt Q8N568); assay: Selectivity interaction (KinomeScan (DiscoverX)) EUB0000291b DCLK2; settings: at 1 µM
[9] = biological target: Cyclin-dependent kinase 4 (Homo sapiens) (UniProt P11802); assay: Selectivity interaction (KinomeScan (DiscoverX)) EUB0000291b CDK4; settings: at 1 µM
[10] = biological target: Cyclin-dependent kinase 18 (Homo sapiens) (UniProt Q07002); assay: Selectivity interaction (KinomeScan (DiscoverX)) EUB0000291b CDK18; settings: at 1 µM
[11] = biological target: Non-receptor tyrosine-protein kinase TYK2 (Homo sapiens, UniProt P29597); assay: Selectivity interaction (KinomeScan (DiscoverX)) EUB0000291b TYK2; settings: at 1 µM
[12] = biological target: Cyclin-dependent kinase 11A (Homo sapiens) (UniProt Q9UQ88); assay: Selectivity interaction (KinomeScan (DiscoverX)) EUB0000291b CDK11A; settings: at 1 µM
[13] = biological target: Mitogen-activated protein kinase kinase kinase 12 (Homo sapiens) (UniProt Q12852); assay: Selectivity interaction (KinomeScan (DiscoverX)) EUB0000291b MAP3K12; settings: at 1 µM
[14] = biological target: Tyrosine-protein kinase Fyn (Homo sapiens, UniProt P06241); assay: Selectivity interaction (Kinase panel (HTRF assay)) EUB0000221b FYN
[15] = biological target: Histone-lysine N-methyltransferase SMYD3 (Homo sapiens) (UniProt Q9H7B4); assay: Selectivity interaction (Methyltransferase panel) EUB0000221b SMYD3; settings: at 10 µM

T2 sequence (P21554 whole entry): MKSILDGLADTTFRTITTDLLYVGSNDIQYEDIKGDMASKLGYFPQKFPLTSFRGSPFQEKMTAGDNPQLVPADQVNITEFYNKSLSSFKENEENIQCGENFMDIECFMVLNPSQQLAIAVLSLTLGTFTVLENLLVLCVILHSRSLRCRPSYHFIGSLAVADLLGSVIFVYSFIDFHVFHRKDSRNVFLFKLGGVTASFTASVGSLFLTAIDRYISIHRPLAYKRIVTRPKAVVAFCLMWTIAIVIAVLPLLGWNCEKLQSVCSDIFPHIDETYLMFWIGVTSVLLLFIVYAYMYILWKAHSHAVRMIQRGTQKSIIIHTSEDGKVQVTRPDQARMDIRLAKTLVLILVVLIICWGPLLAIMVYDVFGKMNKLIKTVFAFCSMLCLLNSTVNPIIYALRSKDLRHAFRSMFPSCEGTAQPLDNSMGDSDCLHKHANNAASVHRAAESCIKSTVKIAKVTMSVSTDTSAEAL
Megakaryocyte-associated tyrosine-protein kinase (Homo sapiens), sequence (P42679 whole entry): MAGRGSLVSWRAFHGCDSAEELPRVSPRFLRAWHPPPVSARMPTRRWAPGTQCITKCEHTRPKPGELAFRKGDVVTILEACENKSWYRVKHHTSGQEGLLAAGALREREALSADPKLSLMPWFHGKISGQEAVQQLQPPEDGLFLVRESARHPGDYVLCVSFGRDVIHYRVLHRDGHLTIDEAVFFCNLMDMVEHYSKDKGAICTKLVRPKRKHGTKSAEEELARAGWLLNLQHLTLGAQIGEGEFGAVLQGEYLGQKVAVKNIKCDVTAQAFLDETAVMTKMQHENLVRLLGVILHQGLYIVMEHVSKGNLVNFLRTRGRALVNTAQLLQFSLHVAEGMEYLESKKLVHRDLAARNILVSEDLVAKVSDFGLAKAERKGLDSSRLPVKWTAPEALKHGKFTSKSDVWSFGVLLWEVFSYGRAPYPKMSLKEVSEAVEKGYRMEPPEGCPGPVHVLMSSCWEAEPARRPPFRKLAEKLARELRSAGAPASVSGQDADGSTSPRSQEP
Serine/threonine-protein kinase DCLK2 (Homo sapiens), sequence (Q8N568 whole entry): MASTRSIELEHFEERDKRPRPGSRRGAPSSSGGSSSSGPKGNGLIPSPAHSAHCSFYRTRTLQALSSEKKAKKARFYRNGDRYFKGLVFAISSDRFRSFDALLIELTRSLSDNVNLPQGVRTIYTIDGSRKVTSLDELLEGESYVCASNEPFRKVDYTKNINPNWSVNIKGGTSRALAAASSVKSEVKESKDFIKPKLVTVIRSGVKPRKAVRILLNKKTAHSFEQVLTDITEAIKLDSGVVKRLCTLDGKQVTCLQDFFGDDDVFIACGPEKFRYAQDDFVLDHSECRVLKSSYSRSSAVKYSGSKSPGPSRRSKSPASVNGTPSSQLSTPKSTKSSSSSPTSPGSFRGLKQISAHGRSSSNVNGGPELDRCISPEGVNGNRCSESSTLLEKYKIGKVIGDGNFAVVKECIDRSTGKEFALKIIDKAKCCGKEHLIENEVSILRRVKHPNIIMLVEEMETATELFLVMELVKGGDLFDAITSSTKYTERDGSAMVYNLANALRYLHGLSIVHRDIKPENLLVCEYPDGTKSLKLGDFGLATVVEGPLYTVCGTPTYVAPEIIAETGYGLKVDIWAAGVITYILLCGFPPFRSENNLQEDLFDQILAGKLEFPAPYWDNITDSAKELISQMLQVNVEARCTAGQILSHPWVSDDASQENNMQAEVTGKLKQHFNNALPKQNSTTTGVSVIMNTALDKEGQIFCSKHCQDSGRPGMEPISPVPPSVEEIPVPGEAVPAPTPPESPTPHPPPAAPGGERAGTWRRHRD
Cyclin-dependent kinase 18 (Homo sapiens), sequence (Q07002 whole entry): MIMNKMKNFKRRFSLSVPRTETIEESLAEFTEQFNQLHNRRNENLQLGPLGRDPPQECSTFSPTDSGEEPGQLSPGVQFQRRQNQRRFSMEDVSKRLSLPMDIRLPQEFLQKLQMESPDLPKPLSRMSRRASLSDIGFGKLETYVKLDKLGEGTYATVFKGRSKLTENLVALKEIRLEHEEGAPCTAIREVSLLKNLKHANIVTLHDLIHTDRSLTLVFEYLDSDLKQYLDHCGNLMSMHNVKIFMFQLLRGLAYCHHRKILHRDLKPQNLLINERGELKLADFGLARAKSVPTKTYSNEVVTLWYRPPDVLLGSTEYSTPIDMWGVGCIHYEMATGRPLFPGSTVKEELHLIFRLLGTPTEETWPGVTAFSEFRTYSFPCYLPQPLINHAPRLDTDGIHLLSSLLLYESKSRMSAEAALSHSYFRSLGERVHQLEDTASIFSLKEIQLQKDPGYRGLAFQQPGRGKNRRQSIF
Tyrosine-protein kinase Fyn, sequence (P06241 whole entry): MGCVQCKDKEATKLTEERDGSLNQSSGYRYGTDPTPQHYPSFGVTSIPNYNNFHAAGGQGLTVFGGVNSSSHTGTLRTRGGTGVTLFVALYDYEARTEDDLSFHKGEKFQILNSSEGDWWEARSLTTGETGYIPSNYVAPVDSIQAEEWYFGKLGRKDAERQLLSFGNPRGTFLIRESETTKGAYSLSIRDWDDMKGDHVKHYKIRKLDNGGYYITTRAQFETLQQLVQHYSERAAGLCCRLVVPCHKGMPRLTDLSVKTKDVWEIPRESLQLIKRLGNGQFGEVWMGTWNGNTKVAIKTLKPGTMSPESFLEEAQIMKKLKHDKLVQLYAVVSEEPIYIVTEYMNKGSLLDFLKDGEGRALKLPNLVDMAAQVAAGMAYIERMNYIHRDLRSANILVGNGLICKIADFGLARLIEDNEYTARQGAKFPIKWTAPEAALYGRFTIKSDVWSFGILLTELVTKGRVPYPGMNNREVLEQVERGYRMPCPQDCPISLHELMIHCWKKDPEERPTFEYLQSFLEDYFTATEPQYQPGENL
Non-receptor tyrosine-protein kinase TYK2, sequence (P29597 whole entry): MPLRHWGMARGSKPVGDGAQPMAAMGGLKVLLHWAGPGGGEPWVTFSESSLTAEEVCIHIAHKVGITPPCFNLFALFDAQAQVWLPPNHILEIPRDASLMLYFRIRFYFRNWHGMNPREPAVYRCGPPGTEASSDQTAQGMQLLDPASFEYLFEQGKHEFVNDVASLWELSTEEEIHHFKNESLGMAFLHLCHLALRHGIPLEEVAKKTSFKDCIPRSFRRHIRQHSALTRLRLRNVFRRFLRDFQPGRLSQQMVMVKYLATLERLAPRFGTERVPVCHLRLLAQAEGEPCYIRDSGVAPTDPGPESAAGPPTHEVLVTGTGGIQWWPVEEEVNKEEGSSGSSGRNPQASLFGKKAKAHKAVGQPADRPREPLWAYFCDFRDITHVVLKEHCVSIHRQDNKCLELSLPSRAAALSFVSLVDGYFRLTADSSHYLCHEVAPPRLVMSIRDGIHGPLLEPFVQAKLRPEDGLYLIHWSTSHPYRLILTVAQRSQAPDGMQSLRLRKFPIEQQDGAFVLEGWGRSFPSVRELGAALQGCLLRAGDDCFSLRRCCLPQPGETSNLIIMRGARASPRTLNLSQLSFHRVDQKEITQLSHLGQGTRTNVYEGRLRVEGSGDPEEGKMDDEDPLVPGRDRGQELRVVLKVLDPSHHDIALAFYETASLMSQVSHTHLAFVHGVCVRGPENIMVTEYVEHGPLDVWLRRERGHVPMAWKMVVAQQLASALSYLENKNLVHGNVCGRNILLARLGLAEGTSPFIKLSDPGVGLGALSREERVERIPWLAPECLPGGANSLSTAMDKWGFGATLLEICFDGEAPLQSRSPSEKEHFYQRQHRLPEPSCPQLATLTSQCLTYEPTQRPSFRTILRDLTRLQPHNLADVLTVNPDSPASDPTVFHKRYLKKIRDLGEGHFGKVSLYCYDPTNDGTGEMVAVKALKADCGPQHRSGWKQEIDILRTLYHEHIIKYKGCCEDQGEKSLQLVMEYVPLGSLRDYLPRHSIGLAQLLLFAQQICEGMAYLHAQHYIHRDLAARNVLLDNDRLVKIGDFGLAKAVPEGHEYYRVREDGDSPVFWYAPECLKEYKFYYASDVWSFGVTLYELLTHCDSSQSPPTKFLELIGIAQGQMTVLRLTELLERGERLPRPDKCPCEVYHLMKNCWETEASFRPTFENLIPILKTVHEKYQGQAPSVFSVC
Mitogen-activated protein kinase kinase kinase 12 (Homo sapiens), sequence (Q12852 whole entry): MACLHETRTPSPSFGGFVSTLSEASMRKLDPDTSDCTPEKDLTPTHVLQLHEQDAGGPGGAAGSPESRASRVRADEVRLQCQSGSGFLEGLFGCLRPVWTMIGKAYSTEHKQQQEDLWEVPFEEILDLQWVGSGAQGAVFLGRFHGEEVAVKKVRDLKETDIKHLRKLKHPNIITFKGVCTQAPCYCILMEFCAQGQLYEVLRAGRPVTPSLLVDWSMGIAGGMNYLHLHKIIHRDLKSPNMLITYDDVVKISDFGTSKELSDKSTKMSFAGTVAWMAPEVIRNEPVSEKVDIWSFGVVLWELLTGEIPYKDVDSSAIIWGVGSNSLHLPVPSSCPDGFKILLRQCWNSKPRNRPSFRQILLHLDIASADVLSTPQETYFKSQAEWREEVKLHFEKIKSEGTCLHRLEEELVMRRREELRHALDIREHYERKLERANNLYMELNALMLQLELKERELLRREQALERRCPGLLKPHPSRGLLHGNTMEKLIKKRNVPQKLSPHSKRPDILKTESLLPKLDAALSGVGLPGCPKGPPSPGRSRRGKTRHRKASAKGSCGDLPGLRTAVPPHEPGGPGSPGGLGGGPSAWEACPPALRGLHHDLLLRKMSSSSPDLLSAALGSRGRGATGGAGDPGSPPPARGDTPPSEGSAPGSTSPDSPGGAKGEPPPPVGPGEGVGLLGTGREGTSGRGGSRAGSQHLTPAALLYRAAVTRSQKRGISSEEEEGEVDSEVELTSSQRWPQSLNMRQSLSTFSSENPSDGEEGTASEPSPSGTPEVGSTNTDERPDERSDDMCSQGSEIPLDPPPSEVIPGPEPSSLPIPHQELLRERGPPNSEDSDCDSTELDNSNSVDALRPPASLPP

Ki [1]: 1.53 µM
SMILES: CCNC(=O)c1cc2c(N3CCOC[C@@H]3C)ccnc2[nH]1

Ki [2]: 0.614 µM | % of control [3]: 52% | % of control [4]: 51%
SMILES: CNCc1ccccc1-c1csc([C@H](C)Nc2nc(C)nc3cc(OC)c(OC)cc23)c1 [BAY-294]

IC50 (Cannabinoid receptor 1 [5]): 10.6 µM | % of inhibition (Cannabinoid receptor 1 [6]): 88% | IC50 [7]: > 10 µM | % of control [8]: 0% | % of control [9]: 18% | % of control [10]: 0% | % of control [11]: 53% | % of control [12]: 0% | % of control [13]: 0%
SMILES: O=C(N1CCS(=O)(=O)CC1)N1C[C@H](c2ccc(OC(F)(F)F)cc2)C[C@H](c2nc(C3CC3)no2)C1 [BAY-386]

IC50 [14]: 5.71 µM | % of activity remaining [15]: 40%
SMILES: C[C@H]1CC(=O)Nc2cc(C(=O)NCCC3CC3)ccc2N1C(=O)N1CC2CC2C1 (stereo not given in full)
